In patent US20080293727A1, “Novel sulfonamide inhibitors of aspartyl protease” (priority 1992, published 2008):

Target: HIV-1 protease (Human immunodeficiency virus type 1 group M subtype B, UniProt P04585)
Experiment: Inhibition constants against HIV-1 protease (method of Pennington et al.)
Assay type: biochemical
Settings: HIV-1 protease; read-out: Ki value
Source text: We measured the inhibition constants of the compounds listed in Table VII against HIV-1 protease using the above-cited method of Pennington et al.

| Compound | Ki |
| --- | --- |
| NC(=O)C[C@H](NC(=O)c1ccc2ccccc2n1)C(=O)N[C@@H](Cc1ccccc1)[C@H](O)CN(Cc1ccccc1)S(=O)(=O)c1ccccc1 [Compound 1] | 4 nM |
| Cc1noc(C)c1S(=O)(=O)N(Cc1ccccc1)C[C@@H](O)[C@H](Cc1ccccc1)NC(=O)[C@H](CC(N)=O)NC(=O)c1ccc2ccccc2n1 [Compound 3] | 32 nM |
| NC(=O)C[C@H](NC(=O)c1ccc2ccccc2n1)C(=O)N[C@@H](Cc1ccccc1)[C@H](O)CN(Cc1ccccc1)S(=O)(=O)c1cccc(C(F)(F)F)c1 [Compound 4] | 19 nM |
| CC(=O)Nc1nc(C)c(S(=O)(=O)N(Cc2ccccc2)C[C@@H](O)[C@H](Cc2ccccc2)NC(=O)[C@H](CC(N)=O)NC(=O)c2ccc3ccccc3n2)s1 [Compound 5] | 2 nM |
| NC(=O)C[C@H](NC(=O)c1ccc2ccccc2n1)C(=O)N[C@@H](Cc1ccccc1)[C@H](O)CN(Cc1ccccc1)S(=O)(=O)c1ccc(-c2ccon2)s1 [Compound 6, (S)-N-1-(1-Benzyl-3-(benzyl-(5-isoxazol-3-yl-thiophene-2-sulfonyl)-amino)-(1S,2 syn)-1-benzyl-2-hydroxy-propyl)-2-((quinoline-2-carbonyl)-amino)-succinamide] | 3 nM |
| NC(=O)C[C@H](NC(=O)c1ccc2ccccc2n1)C(=O)N[C@@H](Cc1ccccc1)[C@H](O)CN(Cc1ccccc1)S(=O)(=O)c1cccc(C(=O)O)c1 [Compound 7] | 8 nM |
| CS(=O)(=O)N(Cc1ccccc1)C[C@@H](O)[C@H](Cc1ccccc1)NC(=O)[C@H](CC(N)=O)NC(=O)c1ccc2ccccc2n1 [Compound 8] | 850 nM |
| NC(=O)C[C@H](NC(=O)c1ccc2ccccc2n1)C(=O)N[C@@H](Cc1ccccc1)[C@H](O)CN(Cc1ccccc1)S(=O)(=O)c1cccc2nonc12 [Compound 9, (S)-N-1-(3-((Benzo(1,2,5)oxadiazole-4-sulfonyl)-benzyl-amino)-(1S,2 syn)-1-benzyl-2-hydroxy-propyl)-2-((quinoline-2-carbonyl)-amino)-succinamide] | 4 nM |
| NC(=O)C[C@H](NC(=O)c1ccc2ccccc2n1)C(=O)N[C@@H](Cc1ccccc1)[C@H](O)CN(Cc1ccccc1)S(=O)(=O)c1cccc(S(N)(=O)=O)c1 [Compound 10, N-1-(1-(S)-Benzyl-3-(benzyl-(3-sulfamoyl-benzenesulfonyl)-amino)-2-(syn)-hydroxy-propyl)-2-((quinoline-2-carbonyl)-amino)-succinamide] | 4 nM |
| CN(C)S(=O)(=O)N(Cc1ccccc1)C[C@@H](O)[C@H](Cc1ccccc1)NC(=O)[C@H](CC(N)=O)NC(=O)c1ccc2ccccc2n1 [Compound 11] | 34 nM |
| CC(C)CN(C[C@@H](O)[C@H](Cc1ccccc1)NC(=O)[C@H](CC(N)=O)NC(=O)c1ccc2ccccc2n1)S(=O)(=O)c1cc(S(=O)(=O)c2ccccc2)cs1 [Compound 13, (S)-N-1-(3-((4-Benzenesulfonyl-thiophene-2-sulfonyl)-isobutyl-amino)-(1S,2 syn)-1-benzyl-2-hydroxy-propyl)-2-((quinoline-2-carbonyl)-amino)-succinamide] | 0.2 nM |
| CC(C)CN(C[C@@H](O)[C@H](Cc1ccccc1)NC(=O)[C@H](CC(N)=O)NC(=O)c1ccc2ccccc2n1)S(=O)(=O)c1ccc(F)cc1 [Compound 14, (S)-N-1-(1-(S)-Benzyl-3-((4-fluoro-benzenesulfonyl)-isobutyl-amino)-2-(syn)-hydroxy-propyl)-2-((quinoline-2-carbonyl)-amino)-succinamide] | 0.1 nM |
| CC(=O)Nc1ccc(S(=O)(=O)N(CC(C)C)C[C@@H](O)[C@H](Cc2ccccc2)NC(=O)[C@H](CC(N)=O)NC(=O)c2ccc3ccccc3n2)cc1F [Compound 15, (S)-N-1-(3-((4-Acetylamino-3-fluoro-benzenesulfonyl)-isobutyl-amino)-(1S,2 syn)-1-benzyl-2-hydroxy-propyl)-2-((quinoline-2-carbonyl)-amino)-succinamide] | < 0.1 nM |
| CC(=O)Nc1cc(S(=O)(=O)N(CC(C)C)C[C@@H](O)[C@H](Cc2ccccc2)NC(=O)[C@H](CC(N)=O)NC(=O)c2ccc3ccccc3n2)ccc1F [Compound 16, (S)-N-1-(3-((3-Acetylamino-4-fluoro-benzenesulfonyl)-isobutyl-amino)-(1S,2 syn)-1-benzyl-2-hydroxy-propyl)-2-((quinoline-2-carbonyl)-amino)-succinamide] | < 0.1 nM |
| CC(=O)Nc1ccc(S(=O)(=O)N(CC(C)C)C[C@@H](O)[C@H](Cc2ccccc2)NC(=O)[C@H](CC(N)=O)NC(=O)c2ccc3ccccc3n2)cc1 [Compound 17, (S)-N-1-(1-(S)-Benzyl-3-((4-acetylamino-benzenesulfonyl)-isobutyl-amino)-2-(syn)-hydroxy-propyl)-2-((quinoline-2-carbonyl)-amino)-succinamide] | < 0.1 nM |
| CC(=O)Nc1nc(C)c(S(=O)(=O)N(CC(C)C)C[C@@H](O)[C@H](Cc2ccccc2)NC(=O)[C@H](CC(N)=O)NC(=O)c2ccc3ccccc3n2)s1 [Compound 18] | < 0.1 nM |
| CC(=O)Nc1cccc(S(=O)(=O)N(CC(C)C)C[C@@H](O)[C@H](Cc2ccccc2)NC(=O)[C@H](CC(N)=O)NC(=O)c2ccc3ccccc3n2)c1 [Compound 19, (S)-N-1-(3-((3-Acetylamino-benzenesulfonyl)-isobutyl-amino)-(1S,2 syn)-1-benzyl-2-hydroxy-propyl)-2-((quinoline-2-carbonyl)-amino)-succinamide] | < 0.1 nM |
| CC(C)CN(C[C@@H](O)[C@H](Cc1ccccc1)NC(=O)[C@H](CC(N)=O)NC(=O)c1ccc2ccccc2n1)S(=O)(=O)c1cccc2nonc12 [Compound 20, (S)-N-1-(3-((Benzo(1,2,5)oxadiazole-4-sulfonyl)-isobutyl-amino)-(1S,2 syn)-1-benzyl-2-hydroxy-propyl)-2-((quinoline-2-carbonyl)-amino)-succinamide] | 0.1 nM |
| CC(C)CN(C[C@@H](O)[C@H](Cc1ccccc1)NC(=O)[C@H](CC(N)=O)NC(=O)c1ccc2ccccc2n1)S(=O)(=O)N(C)C [Compound 21, N-1-((1S-2 syn)-1-Benzyl-2-hydroxy-3-(1-isobutyl-3,3-dimethylsulfonylurea)-propyl)-2-((quinoline-2-carbonyl)-amino)-succinamide] | 0.7 nM |
| CC(=O)Nc1ccc(S(=O)(=O)N(CC(C)C)C[C@@H](O)[C@H](Cc2ccccc2)NC(=O)[C@@H](NC(=O)OCc2ccccn2)C(C)C)cc1 [Compound 22] | 1 nM |
| CC(C)CN(C[C@@H](O)[C@H](Cc1ccccc1)NC(=O)[C@@H](NC(=O)OCc1ccccn1)C(C)C)S(=O)(=O)N(C)C [Compound 24] | 32500 nM |
| CC(C)CN(C[C@@H](O)[C@H](Cc1ccccc1)NC(=O)[C@@H](NC(=O)OCc1cccnc1)C(C)C)S(=O)(=O)c1cccc2nonc12 [Compound 25] | 3000 nM |
| C=CCOC(=O)N[C@@H](Cc1ccccc1)[C@H](O)CN(CC(C)C)S(=O)(=O)c1ccc(NC(C)=O)cc1 [Compound 27] | 8 nM |
| CC(=O)Nc1ccc(S(=O)(=O)N(CC(C)C)C[C@@H](O)[C@H](Cc2ccccc2)NC(=O)OCC(C)C)cc1 [Compound 28] | 17 nM |
| CC(=O)Nc1ccc(S(=O)(=O)N(CC(C)C)C[C@@H](O)[C@H](Cc2ccccc2)NC(=O)OC(C)C)cc1 [Compound 29] | 17 nM |
| CC(=O)Nc1ccc(S(=O)(=O)N(CC(C)C)C[C@@H](O)[C@H](Cc2ccccc2)NC(=O)OCCN2CCCC2=O)cc1 [Compound 30] | 61 nM |
| CC(C)CN(C[C@@H](O)[C@H](Cc1ccccc1)NC(=O)OC(C)(C)C)S(=O)(=O)c1ccc(F)cc1 [Compound 32] | 2.5 nM |
